Source: PubChem BioAssay AID488889 (Sanford-Burnham Center for Chemical Genomics, 2010)
pIC50: −log10 of the molar value.

Molecular target: Tyrosine-protein phosphatase non-receptor type 7 (Homo sapiens) (UniProt P35236)
Experiment: HePTP (PTPN7) phosphatase inhibitor potency, SAR follow-up, biochemical, set 3 (AID 488889)
Conditions: recombinant HePTP phosphatase activity assay

Sequence of Tyrosine-protein phosphatase non-receptor type 7 (Homo sapiens) (P35236 whole entry, looked up): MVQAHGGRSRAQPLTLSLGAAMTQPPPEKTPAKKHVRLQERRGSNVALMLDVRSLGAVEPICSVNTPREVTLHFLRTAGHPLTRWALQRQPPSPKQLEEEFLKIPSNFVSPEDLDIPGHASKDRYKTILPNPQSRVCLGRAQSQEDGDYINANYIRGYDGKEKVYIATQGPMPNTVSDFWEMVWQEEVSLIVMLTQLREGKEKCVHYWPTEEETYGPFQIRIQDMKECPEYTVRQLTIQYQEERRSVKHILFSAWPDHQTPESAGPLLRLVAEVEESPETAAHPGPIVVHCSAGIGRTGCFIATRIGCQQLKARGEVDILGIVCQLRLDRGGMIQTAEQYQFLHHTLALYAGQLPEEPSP

| Structure (SMILES) | pIC50 |
| --- | --- |
| CCOC(=O)COc1ccc(/C=N/NC(=O)c2ccc(-c3csc(Nc4ccc(Cl)cc4)n3)cc2)cc1 | 4.99 |
| O=C(O)COc1ccc(/C=N/NC(=O)c2ccc(-c3csc(Nc4ccc(Cl)cc4)n3)cc2)cc1 | > 6.71 |
